Molecules are shown by their SMILES.

One assay deals with HT-29. Nature of the assay: cells. As to conditions: Homo sapiens, HT-29, 72 h.
A further assay concerns HCT-116. Nature of the assay: cells. As to conditions: Homo sapiens, HCT-116, 72 h.
The subject of the next assay is HCT-8. Briefly: Antiproliferative activity against human HCT-8 cells incubated for 72 hrs by MTT assay. As to conditions: HCT-8, 72 h. The assay is classed as functional, cell-based. (In general: Formazan colour is commonly taken as a measure of viable cells.)
Another assay has as its system HCT-15. Briefly: Antiproliferative activity against human HCT-15 cells incubated for 72 hrs by MTT assay. In kind it is functional, cell-based. As to conditions: HCT-15, 72 h.

Description for HCT-116: Antiproliferative activity against human HCT-116 cells incubated for 72 hrs by MTT assay
Description for HT-29: Antiproliferative activity against human HT-29 cells incubated for 72 hrs by MTT assay

What is called IC50 is the point on the concentration scale where inhibition reaches its midpoint. A high value points to a need for much substance. As for `COc1cc(Oc2ccc(Nc3ccccc3)cc2)cc(OC)c1CNCCc1ccc(C)cc1`, the IC50 with HT-29 was 2830 nM; with HCT-116 it was 4.01 µM; in the assay with HCT-8, 10.2 µM; in the assay on HCT-15 it was 5.88 µM.

Consider `COc1cc(Oc2ccc(Nc3ccc(C#N)cc3)cc2)cc(OC)c1CNCCc1ccc(C(F)(F)F)cc1`, for which the IC50 was determined as 900 nM with HT-29, 2.38 µM in the assay on HCT-116, 6.75 µM with HCT-8 and 2.43 µM in the assay on HCT-15.

For the compound `COc1cc(Oc2ccc(Nc3ccc(Br)cc3)cc2)cc(OC)c1CNCCc1ccc(C(F)(F)F)cc1`, the IC50 with HT-29 is 1310 nM; in the assay with HCT-116, 3.54 µM; in the assay with HCT-8, 6.98 µM; in the assay with HCT-15, 3.85 µM.

In the case of `COc1cc(Oc2ccc(Nc3ccc(C(=O)C(F)(F)F)cc3)cc2)cc(OC)c1CNCCc1ccc(C(F)(F)F)cc1`, the IC50 with HT-29 is 1930 nM; in the assay with HCT-116 it was 2.43 µM; in the assay on HCT-8 it was 7.86 µM; with HCT-15, 1.89 µM.

For the compound `COc1cc(Oc2ccc(-c3ccccc3)cc2)cc(OC)c1CNCCc1ccc(C(F)(F)F)cc1`, the half-inhibitory concentration (IC50) in the assay on HT-29 came to 1410 nM; with HCT-116, 2.8 µM; with HCT-8, 6.98 µM; with HCT-15, 1.55 µM.

As to `CCCc1ccc(Nc2ccc(Oc3cc(OC)c(CNCCc4ccc(C(F)(F)F)cc4)c(OC)c3)cc2)cc1`, the IC50 in the assay with HT-29 stood at 1600 nM; with HCT-116, 3.23 µM; in the assay on HCT-8 it was 4.1 µM; in the assay with HCT-15, 5.62 µM.

Regarding `COc1cc(Oc2ccc(Nc3ccc(Cl)cc3)cc2)cc(OC)c1CNCCc1ccc(C(F)(F)F)cc1`, the IC50 in the assay with HT-29 was determined as 1290 nM; with HCT-116, 3.53 µM; with HCT-8, 4.1 µM; in the assay on HCT-15, 5.31 µM.

For the compound `COc1cc(Oc2ccc(Nc3ccc(F)cc3)cc2)cc(OC)c1CNCCc1ccc(C(F)(F)F)cc1`, the IC50 in the assay with HT-29 came to 1470 nM; in the assay on HCT-116, 3.4 µM; in the assay on HCT-8, 5.32 µM; with HCT-15 it was 6.23 µM.

On to `COc1cc(Oc2ccc(Nc3ccc(-c4cnc5ccccc5c4)cc3)cc2)cc(OC)c1CNCCc1ccc(C(F)(F)F)cc1`, for which the IC50 with HT-29 was 1990 nM; in the assay on HCT-116 it was 3.12 µM; in the assay with HCT-8, 6.77 µM; with HCT-15, 1.58 µM.

Turning to `COc1cc(Oc2ccc(-c3ccc(Cl)cc3)cc2)cc(OC)c1CNCCc1ccc(C(F)(F)F)cc1`, the IC50 with HT-29 is 2060 nM; in the assay with HCT-116, 5.05 µM; in the assay on HCT-8, 6.09 µM; with HCT-15, 3.23 µM.

Regarding `COc1cc(Oc2ccc(Nc3ccc(C(F)(F)F)c(C(F)(F)F)c3)cc2)cc(OC)c1CNCCc1ccc(C(F)(F)F)cc1`, the half-inhibitory concentration (IC50) was determined as 2350 nM in the assay on HT-29, 1.64 µM in the assay with HCT-116, 6.98 µM with HCT-8 and 2.12 µM in the assay on HCT-15.

Consider `COc1cc(Oc2ccc(Nc3ccccc3)cc2)cc(OC)c1CNCCc1ccc(F)cc1`, for which the IC50 in the assay with HT-29 came to 2790 nM; in the assay on HCT-116, 3.13 µM; in the assay on HCT-8, 6.32 µM; in the assay on HCT-15, 5.64 µM.

Regarding `COc1cc(Oc2ccc(Nc3ccc(C(F)(F)F)cc3)cc2)cc(OC)c1CNCCc1ccc(C(F)(F)F)cc1`, the IC50 in the assay with HT-29 was 1310 nM; in the assay with HCT-116 it was 6.46 µM; in the assay on HCT-8 it was 8.49 µM; with HCT-15, 3.24 µM.

`COc1cc(Oc2ccc(Nc3ccc(C)cc3)cc2)cc(OC)c1CNCCc1ccc(C(F)(F)F)cc1`: the IC50 in the assay on HT-29 was found to be 1110 nM; with HCT-116, 2.13 µM; in the assay with HCT-8, 7.13 µM; in the assay with HCT-15, 5.61 µM.

Take `COc1cc(Oc2ccc(Nc3ccc(Cc4ccccc4)cc3)cc2)cc(OC)c1CNCCc1ccc(C(F)(F)F)cc1`: the concentration for half-maximal inhibition (IC50) with HT-29 amounted to 1130 nM; with HCT-116 it was 5.21 µM; in the assay on HCT-8, 6.57 µM; in the assay with HCT-15, 4.48 µM.

Take `COc1cc(Oc2ccc(Nc3ccccc3)cc2)cc(OC)c1CNCCc1ccccn1`: the concentration for half-maximal inhibition (IC50) in the assay on HT-29 was found to be 2940 nM; with HCT-116, 2.76 µM; with HCT-8, 11.2 µM; in the assay on HCT-15, 6.87 µM.

On to `COc1cc(Oc2ccc(Nc3ccc(CO)cc3)cc2)cc(OC)c1CNCCc1ccc(C(F)(F)F)cc1`, for which the IC50 was found to be 1030 nM with HT-29, 3.22 µM in the assay with HCT-116, 3.23 µM in the assay on HCT-8 and 3.33 µM in the assay with HCT-15.

As to `COc1cc(Oc2ccc(Nc3ccccc3)cc2)cc(OC)c1CNCCc1ccc(C(F)(F)F)cc1`, the IC50 with HT-29 came out at 1050 nM; in the assay with HCT-116 it was 1.75 µM; in the assay on HCT-8, 4.23 µM; with HCT-15, 2.78 µM.

`COc1cc(Oc2ccc(Nc3ccccc3)cc2)cc(OC)c1CNCCc1ccc(O)cc1`: the IC50 in the assay on HT-29 is 2750 nM; in the assay on HCT-116, 3.46 µM; in the assay with HCT-8, 6.78 µM; with HCT-15 it was 4.54 µM.

For the compound `COc1cc(Oc2ccc(Nc3ccc(C(C)(C)C)cc3)cc2)cc(OC)c1CNCCc1ccc(C(F)(F)F)cc1`, the IC50 with HT-29 is 2180 nM; in the assay on HCT-116 it was 6.48 µM; in the assay with HCT-8, 9.76 µM; in the assay on HCT-15, 5.76 µM.

Consider `COc1cc(Oc2ccc(-c3ccc(F)cc3)cc2)cc(OC)c1CNCCc1ccc(C(F)(F)F)cc1`, for which the half-maximal inhibitory concentration (IC50) with HT-29 was determined as 1950 nM; with HCT-116 it was 3.77 µM; in the assay on HCT-8, 7.89 µM; with HCT-15, 4.23 µM.

Take `COc1ccc(-c2ccc(Oc3cc(OC)c(CNCCc4ccc(C(F)(F)F)cc4)c(OC)c3)cc2)cc1`: the half-inhibitory concentration (IC50) in the assay with HT-29 amounted to 2190 nM; in the assay on HCT-116, 2.62 µM; in the assay with HCT-8 it was 6.45 µM; with HCT-15, 2.34 µM.

Regarding `COc1cc(Oc2ccc(Nc3ccc(C(F)(F)F)c(F)c3)cc2)cc(OC)c1CNCCc1ccc(C(F)(F)F)cc1`, the IC50 worked out at 1420 nM in the assay on HT-29, 1.74 µM in the assay with HCT-116, 8.63 µM with HCT-8 and 2.34 µM in the assay on HCT-15.

`COC(=O)c1ccc(Nc2ccc(Oc3cc(OC)c(CNCCc4ccc(C(F)(F)F)cc4)c(OC)c3)cc2)cc1`: the IC50 came out at 1280 nM with HT-29, 5.98 µM in the assay with HCT-116, 7.34 µM in the assay with HCT-8 and 4.35 µM in the assay with HCT-15.

In the case of `CCCCc1ccc(Nc2ccc(Oc3cc(OC)c(CNCCc4ccc(C(F)(F)F)cc4)c(OC)c3)cc2)cc1`, the IC50 with HT-29 worked out at 1750 nM; with HCT-116 it was 3.1 µM; in the assay on HCT-8, 4.98 µM; with HCT-15, 4.86 µM.

For the compound `COc1cc(Oc2ccc(Nc3ccccc3)cc2)cc(OC)c1CNCCc1ccc(Br)cc1`, the 50% inhibitory concentration (IC50) in the assay on HT-29 is 2380 nM; with HCT-116 it was 2.96 µM; in the assay on HCT-8, 7.13 µM; in the assay with HCT-15, 6.97 µM.

Consider `COc1cc(Oc2ccc(Nc3ccc(-c4ccccc4)cc3)cc2)cc(OC)c1CNCCc1ccc(C(F)(F)F)cc1`, for which the 50% inhibitory concentration (IC50) in the assay with HT-29 worked out at 1700 nM; in the assay on HCT-116, 3.85 µM; with HCT-8 it was 5.88 µM; in the assay with HCT-15, 3.41 µM.

`COc1cc(Oc2ccc(Nc3ccc(CCO)cc3)cc2)cc(OC)c1CNCCc1ccc(C(F)(F)F)cc1`: the IC50 in the assay with HT-29 amounted to 860 nM; with HCT-116 it was 2.05 µM; in the assay with HCT-8, 3.58 µM; with HCT-15 it was 3.21 µM.

Take `COc1cc(Oc2ccc(Nc3ccc(SC)cc3)cc2)cc(OC)c1CNCCc1ccc(C(F)(F)F)cc1`: the 50% inhibitory concentration (IC50) in the assay on HT-29 turned out to be 1720 nM; in the assay on HCT-116, 3.79 µM; with HCT-8 it was 8.36 µM; in the assay on HCT-15 it was 2.13 µM.

With `COc1ccc(Nc2ccc(Oc3cc(OC)c(CNCCc4ccc(C(F)(F)F)cc4)c(OC)c3)cc2)cc1`, the IC50 in the assay with HT-29 amounted to 1410 nM; in the assay with HCT-116 it was 1.91 µM; in the assay with HCT-8 it was 4.22 µM; in the assay on HCT-15, 6.37 µM.

The record behind these values is ChEMBL document CHEMBL5352446, “Synthesis and biological evaluation of a novel c-Myc inhibitor against colorectal cancer via blocking c-Myc/Max heterodimerization and disturbing its DNA binding” (Eur J Med Chem, 2022).
